These results are taken from patent US9766249B2, “Compositions and methods for prediction of drug sensitivity, resistance, and disease progression” (BioMarker Strategies, LLC, priority 2010, dated 2017).

Assay [1] has as its system SK-MEL-21. The conditions noted are these: MEK inhibition of PDGFβ stimulation.
Assay [2] relates to RPMI-7951 cells. In words: EGF stimulation and PLX or MEK inhibition (FIG. 35). The format is cell-based. An excerpt: Protein levels measured include pAKT, pErk, pMEK and pEGFR.
Assay [3] has as its system Breast Cancer Cell lines (BT-474, MDA-MD-231, SKBR3, HCC-1937, BT-20, T47D, MCF-7, BT-549). The conditions noted are these: EGF 200 ng/ml with U0126 1 μM. As to the method:
Breast Cancer Cell lines (BT-474, MDA-MD-231, SKBR3, HCC-1937, BT-20, T47D, MCF-7, BT-549) are propagated and removed from the plate by gentle scraping to simulate a FNA biopsy sample. Following removal, the cells were placed on the SnapPath™ live-tumor-cell processing platform (BioMarker Strategies, LLC) to evoke ex vivo biomarkers. SnapPath™ disperses the sample, enriches for tumor cells, aliquots into test wells, and applies ex vivo stimulation by EGF (200 ng/ml) in the presence or absence of the MEK inhibitor, U0126 (1 μM). Cell lysates are then analyzed using the BioPlex platform for the following phosphoproteins: p-Erk 1/2, p-AKT, p-EGFR, p-Stat3 (BioRad). Functional profiles are generated for each cell line based on the levels of phosphoproteins.

Assay [4] has as its system RPMI-7951. In words: PDGFβ stimulation and MEK inhibition of PDGFβ stimulation (FIGS. 23 and 24). The format is cell-based. The conditions noted are these: MEK inhibition of PDGFβ stimulation.
Assay [5] relates to SK-MEL-2. The conditions noted are these: MEK inhibition of PDGFβ stimulation. The source says:
(§1) Protein levels measured include pAKT, pErk, pGSK3β, pP70S6k, pSTAT3, and pEGFR.

For assay [6], the system named is SK-MEL-28 cells. The conditions noted are these: MEK inhibition, absence of EGF stimulation.
From the text: as §1

For assay [7], the system named is SK-MEL-31 cells. The conditions noted are these: MEK inhibition, absence of EGF stimulation.
From the text: as §1

Assay [8] concerns SK-MEL-28. The conditions noted are these: MEK inhibition of PDGFβ stimulation.
From the text: as §1

The subject of assay [9] is RPMI-7951. In words: PDGFRβ activation in the absence or presence of U0126 or PLX-4702 (FIG. 36). The format is cell-based. An excerpt:
(§2) Protein levels measured include pAKT, pErk, pMEK.

The subject of assay [10] is SK-MEL-28. In words: EGF stimulation in the presence of PLX-4702 or U0126 (FIGS. 33 and 34). The format is cell-based.
From the text: as §2

Assay [11] relates to Breast cancer cell lines (MCF-7, HCC-1937, MDA-MB-231, BT474, and SKBR3). In words: EGF stimulation, phosphoprotein modulation score, cell line panel. The class given is cell-based. The conditions noted are these: 200 ng/ml EGF 5 minutes. As to the method:
(§3) Breast cancer cell lines (MCF-7, HCC-1937, MDA-MB-231, BT474, and SKBR3) are exposed to either vehicle (control) or stimulated with 200 ng/ml epidermal growth factor (EGF) for 5 minutes then lysed and proteins extracted. Mean Fluorescence Intensity (MFI) levels of six phosphoproteins (pEGFR, pErk, pAKT, pP70S6K, pGSK3β, and pSTAT3) are determined in sextuplet using a multiplexed bead-immunoassay (BioPlex, BioRad) and a modulation score (MS), defined as the log 2 (MFI stimulated/MFI control), calculated for each. Scores are ranked by percentile relative to the median (0.66) and inter-quartile range (IQR) (1.54). Moderate responders are classified as those with MS between the 75th percentile (2.20) and the 75th percentile plus the IQR (3.74). High responders are those MS>3.74. Low responders are those MS falling between the IQR and 75th percentile (1.54-2.20) whereas non responders are classified as MS<1.54.

The subject of assay [12] is MCF-7 cells. In words: EGF stimulation, phosphoprotein modulation score (BioPlex bead-immunoassay). The class given is cell-based. The conditions noted are these: 200 ng/ml EGF 5 minutes. As to the method: as §3
Assay [13] deals with HCC-1937. The assay is described as above. The class given is cell-based. The conditions noted are these: 200 ng/ml EGF 5 minutes. As to the method:
as §3

Assay [14] concerns SKBR3. The description is as above. The format is cell-based. The conditions noted are these: 200 ng/ml EGF 5 minutes. The protocol: as §3
In assay [15] the test system is BT474. The assay is described as above. The conditions noted are these: 200 ng/ml EGF 5 minutes. The format is cell-based. As to the method:
as §3

Assay [16] relates to RPMI-7951. In words: Melanoma functional signaling profile upon EGF stimulation (FIG. 15). The class given is cell-based. The protocol: (§4) Protein levels are measured for pAKT, pERK, pGSK3, p70S6K, pSTAT, pEGFR in RPMI-7951, SK-MEL 2, SK-MEL 28, and SK-MEL 31 cells. Fold changes are calculated for protein level before and after EGF stimulation.
Assay [17] concerns SK-MEL-31. The description is as above. The class given is cell-based. The protocol: as §4
Assay [18] relates to melanoma. The conditions noted are these: phase I and II clinical trials; cited from earlier work.
Assay [19] deals with SK-MEL-28. The conditions noted are these: BRAF-mut (V600E); cited from earlier work.
In assay [20] the test system is SK-MEL-31. The conditions noted are these: BRAF-wt, RAS-wt; cited from earlier work.
Assay [21] relates to RPMI-7951. The conditions noted are these: BRAF-mut (V600E), COT Amplification; cited from earlier work.

“Also recorded” adds a separate entry of the source. Where two headings read alike, the source gives them in different places. Some results are limits rather than exact numbers.

Turning to `N#CC(=C(/N)Sc1ccccc1N)/C(C#N)=C(\N)Sc1ccccc1N` [U0126], the “reduction of pErk” value in assay [1], in assay [4] and in [8] was “approximately 50%” in each case. In addition, the pErk entry in [2] (EGF stimulation, MEK inhibition) is recorded as “decreased”; in [5], “not impacted”; in [6], “inhibited”; in assay [7] it was “inhibited”. For the same compound, the pAKT phosphorylation level result in assay [3] (another functional group) is on record as “unanticipated up-regulation of p-AKT”; in assay [3] (one functional group), “low levels of p-AKT inhibition”. Besides, the pEGFR phosphorylation level entry in assay [3] (one functional group) is “low p-EGFR inhibition”; in [3] (other functional group), “unanticipated up-regulation of p-EGFR”. For the same compound, the pEGFR result in assay [6] is “activated”. In addition, the pAkt result in assay [7] was “upregulated”. Further, in assay [9] (MEK inhibition), the pMEK down-regulation entry was “less effective”. In addition, the pMEK result in assay [10] (MEK inhibitor and EGF) is reported as “increased”.
For the compound `CCCS(=O)(=O)Nc1ccc(F)c(C(=O)c2c[nH]c3ncc(Cl)cc23)c1F` [PLX-4702], the pMEK entry in assay [9] (presence of PLX-4702) is “down-regulated”. Also, the pERk expression entry in assay [10] (PLX inhibition plus EGF stimulation) is “reduced”.
As for epidermal growth factor [EGF], the pEGFR entry in assay [2] (all EGF modulation) is “dramatically increased”. Also, the EGFR-phosphorylation response class result in [11] (all cells except BT474) is listed as “high”. Moreover, the “pGSK3β MS” value in [11] (all five cell lines) was less than 1.0. In addition, the “pP70S6K MS” value in assay [11] (all five cell lines) is less than 1.0. For the same compound, the “MS of all other markers across the five cell lines” value in assay [11] (markers not named individually) is reported as less than 1.54. Moreover, the pErk response class result in [11] (other lines tested (not MCF-7, HCC-1937)) is “none”. Besides, the “STAT-3 phosphorylation MS” value in assay [12] was found to be 2.34. In addition, the “MS for pErk” value in assay [12] (MS = log 2 (MFI stimulated/MFI control)) is 3.92; in [13] it was 2.89. Also, the “pAKT MS” value in assay [14] amounted to 1.78. Further, the “EGFR-phosphorylation MS” value in [15] was 2.57. The “induction of pEGFR” value in [16] and in assay [17] was “highest induction” each time.
For the compound `CCCS(=O)(=O)Nc1ccc(F)c(C(=O)c2c[nH]c3ncc(-c4ccc(Cl)cc4)cc23)c1F` [PLX-4032], the response rate entry in assay [18] is recorded as “remarkable response rate”. The “PLX-4032 Phenotype” value in [19] was “Sensitive”; in [20], “resistance; also recorded: Resistant”; in [21], “resistance; also recorded: Resistant”.
